Inhibition data for 6 compounds are collected here from ChEMBL document CHEMBL1149854, “Glycosides from the bark of Adina polycephala” (2008).

The structures appear in SMILES notation.

The test in a line: Antiinflammatory activity in rat polymorphonuclear leukocytes assessed as inhibition of platelet activating factor-induced release of beta-glucuronidase at 10 uM after 15 mins. The test is classed as functional. As to conditions: 0.25 h.
Broadly, the inhibition is the share of the control response that was lost under treatment. For `COc1cc(C(=O)OC[C@H]2O[C@@H](OC(=O)c3cc(OC)c(O)c(OC)c3)[C@H](O)[C@@H](O)[C@@H]2O)ccc1O[C@@H]1O[C@H](COC(=O)c2cc(OC)c(O)c(OC)c2)[C@@H](O)[C@H](O)[C@H]1O`, the inhibition at 10 µM stood at 6%. With `COC(=O)C1=CO[C@@H](O[C@@H]2O[C@H](CO[C@@H]3O[C@@H](C)[C@H](O)[C@@H](O)[C@H]3O)[C@@H](O)[C@H](O)[C@H]2O)[C@@H]2C(CO)=CC[C@H]12`, the inhibition at 10 µM stood at 44.8%. Take `COc1cc(O)ccc1O[C@@H]1O[C@H](COC(=O)c2ccc(O[C@@H]3O[C@H](COC(=O)c4cc(OC)c(O)c(OC)c4)[C@@H](O)[C@H](O)[C@H]3O)c(OC)c2)[C@@H](O)[C@H](O)[C@H]1O`: the inhibition at 10 µM worked out at 43.6%. The same measure for `COc1cc(C(=O)O)ccc1O[C@@H]1O[C@H](COC(=O)c2ccc(O[C@@H]3O[C@H](COC(=O)c4cc(OC)c(O)c(OC)c4)[C@@H](O)[C@H](O)[C@H]3O)c(OC)c2)[C@@H](O)[C@H](O)[C@H]1O`: 60.2%.

Turning to `COc1cc(O[C@@H]2O[C@H](COC(=O)c3ccc(O[C@@H]4O[C@H](COC(=O)c5cc(OC)c(O)c(OC)c5)[C@@H](O)[C@H](O)[C@H]4O)c(OC)c3)[C@@H](O)[C@H](O)[C@H]2O)ccc1O`, the inhibition at 10 µM was found to be 25.2%.

Turning to `C[C@@H]1C(=O)O[C@H]2[C@H](O)[C@@]34[C@H]5C[C@@H](C(C)(C)C)[C@]36[C@@H](OC(=O)[C@@H]6O)O[C@@]4(C(=O)O5)[C@@]12O` [GINKOLIDE B], the inhibition at 10 µM is 78.8%.
